# Test results reported in patent US6495584B1, “Use of 3-(1H-imidazol-4-ylmethyl)-indan-5-ol in the manufacture of a medicament for intraspinal, intrathecal or epidural administration” (Orion Corporation, priority 1998, dated 2002).
# Like-named read-outs stand apart in the source and are kept apart here.
# Columns and labels:
# rat [1] = experiment: Motor coordination: rotarod treadmill; conditions: intrathecal, 15 minutes after injection
# From the text: (§4) The rats (Sprague-Dawley, B&K, Sollentuna, Sweden) were anaesthetized by midazolam and fentanyl-fluanisone combination anaesthesia and then chronically catheterized according to the method described by Yaksh and Rudy (Physiology & Behaviour 17,1031-1036, 1976). Briefly, the atlanto-occipital membrane of the spine (directly below the skull) was incised. A polyethylene catheter (PE10 Intramedic, USA) filled with sterile saline was carefully and slowly pushed 8 cm into the spinal cavity. The end of the catheter is known to reach the close proximity of the lumbar enlargement of the spine. The location of the end of the catheter was tested by administering 0.5 mg lidocain approximately 3 days after catheterization. If both hindlegs were paralyzed, the rat was used in the drug tests.
# (§5) The effect on motor coordination was evaluated by a rotarod treadmill for rats (Ugo Basile, Italy). It consists of four drums (diameter of 70 mm) separated by five flanges. The drums were adjusted to rotate 4 revolutions per minute. The rod was rotated against the direction of the rat, so it had to walk forward to stay on the rod. […]
# (§6) Fifteen minutes after the drug injection, the rat was placed on the rotarod apparatus, and the falling time was measured. […] The dose-response curves were drawn on a logarithmic scale, and the ED50 values were determined graphically from these.
# in vivo = conditions: Sprague-Dawley, rat
# Method: (§1) There were 8 rats in each group tested.
# (§2) Sedative effects (effects on motor activity) were measured in a polypropylene animal cage (38×22×15 cm) with a transparent polypropylene lid by Photobeam Activity System (PAS, Cage Rack, San Diego Instruments, San Diego, USA). The system consists of 16 separate enclosures connected to a computer control unit. There were three photobeams in each enclosure. The enclosures surrounded the cage at the height of 5 cm. The breaking of beams was counted as locomotor activity.
# (§3) The analgesic activity and sedative effect after intravenous (to the tail vein) and subcutaneous administration were studied according to the methods described in Example 2.
# rat [2] = experiment: in vivo
# Method: as §1, §2, §3
# physchem = experiment: physchem
# Method: The hydrochloride salts of the above compounds were shaken for 90 minutes in a separatory funnel at room temperature with equal volumes (1:1, v/v) of an organic phase (water saturated 1-octanol) and an aqueous solution (0.1 M HCI or 67 mM phosphate buffer pH 7.4), separating the two phases. The quantitations of the amounts of the studied compounds were performed by the RP-HPLC (reverse phase high pressure liquid chromatography) technique. […] As a mobile phase, methanol: 15 mM phosphate buffer pH2 at the ratio 50:50 (v/v) was used.
# The partition coefficient (P) is a ratio of the equilibrium concentrations of a solute in a lipophilic environment (1-octanol) and water (P=coct/cwater). The logarithm of the partition coefficient (logP) is used as a lipophilicity parameter for a neutral molecule. D is the partition coefficient measured at a pH where the molecules are partly or totally ionized.
# rat [3] = experiment: Tail-flick analgesia test; type: in vivo
# Method: as §1
# Tail-flick analgesia was tested by a tail-flick analgesy meter (Ugo Basile, Italy). The analgesia testing was done no earlier than four days after the catheterization. The rats were always habituated to the immobilization chambers that were used in the analgesia measurements. The tail of the rat was outside the chamber and it was placed on the heating spot of the apparatus. Thus, the hot infrared beam would hit the tail. When the rat reacted and moved the tail away from the beam, the analgesy meter automatically measured the latency of the tail-withdrawal. The tail-flick measurement was always repeated three times, one after another, to diminish the effect of a possible unspecific reaction. […] The maximal latency (cut-off time) was set to 5 seconds in order to prevent burns of the tail. The predrug tail-flick latencies were first measured, and then the rats were administered 10 μl of the drug solution by a Hamilton syringe. Immediately thereafter the catheter was washed with 10 μl of sterile saline, and the tip was sealed by a lighter. The analgesia was tested after 30 minutes from the administration of the drug by measuring tail-flick analgesia as described above.
# The tail-flick analgesia data were represented as MPE% values (maximum possible effect %). The tail-flick latencies (mean of three measurements) were calculated as MPE% values as follows: (postdrug latency−predrug latency)/(cut-off time−predrug latency)×100%. The dose-response curves were drawn of the MPE% values, and the dose was on a logarithmic scale (see FIG. 1). […] 1.03 (San Diego, USA) software.
# as §3
# rat [4] = conditions: Sprague-Dawley, in vivo
# From the text: as §4
# Effects on gastrointestinal motility were measured in separate animals as follows (the charcoal propulsion test). The rats (8/group) were fasted overnight and were randomized according to the latin square design. 30 minutes after the administration of the drugs, a 10% charcoal suspension in 0.25% Na-carboxy-methylcellulose was administered perorally by a gavage. […] The distance of the charcoal suspension from the pylorus in the intestine was measured. […] The ED50 value of the dose-response graph was determined by the Graph Pad Prism v. […]
# rat [5] = conditions: Sprague-Dawley, in vivo, 15 min
# From the text: as §4, §5, §6
Compound,ED50 Loss of motor coordin. (decrease in rotarod performance) (rat [1]),ED50 at 10 min (in vivo),ED50 at 10 min (in vivo; sc),Sedation at an analgesic dose (rat [2]),logD at 90 min (physchem; pH 1),logD at 90 min (physchem; pH 7.4),"ED50 (rat [3]; central, intrathecal (it), Table 2 result per rat multiplied by 3)","ED50 Analgesia (tail-flick test) (rat [3]; intrathecal, 30 minutes after administration)",ED50 (rat [3]; intravenous (iv)),ED50 (rat [3]; subcutaneous (sc)),ED50 Inhib. of GI motility (rat [4]),ED50 Loss of motor coordin. (decrease in rotarod performance) (rat [5]),ED50 Analgesia (tail-flick test) (rat [3]; in vivo)
"Oc1ccc2c(c1)C(Cc1c[nH]cn1)CC2 (centres unmarked) [Compound A, 3-(1H-imidazol-4-ylmethyl)-indan-5-ol]",> 30 µg/rat,0.09 mg/kg,0.08 mg/kg,not to induce sedation,-0.69,1.91,0.0021 mg/kg,0.7 µg/rat,> 0.03 mg/kg,> 0.3 mg/kg,5.7 µg/rat,,
"Clc1cccc(Cl)c1N=C1NCCN1 [Compound B, clonidine, reference compound]",,,,,,,,,,,3.5 µg/rat,>10 g/rat,
"clonidine [Compound B, reference compound]",,,,,,,,,,,,,6.4 µg/rat
